Assay results as given in patent US7915022B2, “Carbonyl reductase, gene thereof and method of using the same” (priority 2004, dated 2011).

Legend:
[1] = system: polypeptide consisting of the amino acid sequence shown in SEQ ID NO: 4 (carbonyl reductase), cell-free extract of E. coli HB101 (pNTOM4); test: Substrate specificity of polypeptide produced by transformant E. coli HB101 (pNTOM4); format: biochemical, Ogataea minuta var. minuta NBRC0975; conditions: 1 mM substrate, 0.25 mM NADPH, pH 6.5, 30° C., 1 min; relative to activity on CBPB as 100%
Method: (§1) In 100 mM phosphate buffer (pH 6.5) containing 0.33% (v/v) dimethyl sulfoxide were dissolved a carbonyl compound to be a substrate to a final concentration of 1 mM, and a coenzyme NADPH to a final concentration of 0.25 mM, respectively. Thereto was added a cell-free extract of E. coli HB101 (pNTOM4) or E. coli HB101 (pNTOM3) prepared in Example 7, and the mixture was reacted at 30° C. for 1 min. The reduction activity on each carbonyl compound was calculated from the rate of decrease in the absorbance of the reaction mixture at a wavelength of 340 nm, and shown in Table 2 as a value relative to the activity on (3S)-1-chloro-3-tert-butoxycarbonylamino-4-phenyl-2-butanone as 100%.

[2] = system: polypeptide consisting of the amino acid sequence shown in SEQ ID NO: 3 (carbonyl reductase), cell-free extract of E. coli HB101 (pNTOM3); test: Substrate specificity of polypeptide produced by transformant E. coli HB101 (pNTOM3); format: biochemical, Ogataea minuta var. minuta NBRC0975; conditions: 1 mM substrate, 0.25 mM NADPH, pH 6.5, 30° C., 1 min; relative to activity on CBPB as 100%
Method: as §1

O=C(CCl)c1cccc(Cl)c1 [2-chloro-1-(3′-chlorophenyl)ethanone]
relative activity (%) E. coli HB101 (pNTOM4) [1]: 33%
relative activity (%) E. coli HB101 (pNTOM3) [2]: 1301%

CC(=O)CC(=O)OCc1ccccc1 [benzyl acetoacetate]
relative activity (%) E. coli HB101 (pNTOM4) [1]: 4%
relative activity (%) E. coli HB101 (pNTOM3) [2]: 883%

CCCCC(C)=O [2-hexanone]
relative activity (%) E. coli HB101 (pNTOM4) [1]: 0%
relative activity (%) E. coli HB101 (pNTOM3) [2]: 11%

CCOC(=O)CC(=O)COC(C)=O [ethyl 4-acetoxyacetoacetate]
relative activity (%) E. coli HB101 (pNTOM4) [1]: 1%
relative activity (%) E. coli HB101 (pNTOM3) [2]: 465%

CCCCCCCCOC(=O)CC(=O)CCl [n-octyl 4-chloroacetoacetate]
relative activity (%) E. coli HB101 (pNTOM4) [1]: 24%
relative activity (%) E. coli HB101 (pNTOM3) [2]: 466%

O=Cc1ccc([N+](=O)[O-])cc1 [p-nitrobenzaldehyde]
relative activity (%) E. coli HB101 (pNTOM4) [1]: 21%
relative activity (%) E. coli HB101 (pNTOM3) [2]: 1166%

CC(=O)c1ccc(F)cc1 [4′-fluoroacetophenone]
relative activity (%) E. coli HB101 (pNTOM4) [1]: 1%
relative activity (%) E. coli HB101 (pNTOM3) [2]: 28%

O=CCCc1ccccc1 [3-phenylpropionaldehyde]
relative activity (%) E. coli HB101 (pNTOM4) [1]: 7%
relative activity (%) E. coli HB101 (pNTOM3) [2]: 2410%

O=Cc1ccccc1Cl [o-chlorobenzaldehyde]
relative activity (%) E. coli HB101 (pNTOM4) [1]: 17%
relative activity (%) E. coli HB101 (pNTOM3) [2]: 269%

CC(=O)c1cnccn1 [acetylpyrazine]
relative activity (%) E. coli HB101 (pNTOM4) [1]: 0%
relative activity (%) E. coli HB101 (pNTOM3) [2]: 185%

O=Cc1cccc([N+](=O)[O-])c1 [m-nitrobenzaldehyde]
relative activity (%) E. coli HB101 (pNTOM4) [1]: 29%
relative activity (%) E. coli HB101 (pNTOM3) [2]: 851%

COC(=O)CC(C)=O [methyl acetoacetate]
relative activity (%) E. coli HB101 (pNTOM4) [1]: 0%
relative activity (%) E. coli HB101 (pNTOM3) [2]: 8%

CCCC=O [n-butylaldehyde]
relative activity (%) E. coli HB101 (pNTOM4) [1]: 0%
relative activity (%) E. coli HB101 (pNTOM3) [2]: 168%

CCOC(=O)C(Cl)C(C)=O (centres unmarked) [ethyl 2-chloroacetoacetate]
relative activity (%) E. coli HB101 (pNTOM4) [1]: 40%
relative activity (%) E. coli HB101 (pNTOM3) [2]: 3309%

CCOC(=O)CC(=O)c1ccccc1 [ethyl benzoylacetate]
relative activity (%) E. coli HB101 (pNTOM4) [1]: 0%
relative activity (%) E. coli HB101 (pNTOM3) [2]: 1233%

CC(=O)C(C)=O [diacetyl]
relative activity (%) E. coli HB101 (pNTOM4) [1]: 5%
relative activity (%) E. coli HB101 (pNTOM3) [2]: 444%

CCC(=O)c1ccccc1 [propiophenone]
relative activity (%) E. coli HB101 (pNTOM4) [1]: 2%
relative activity (%) E. coli HB101 (pNTOM3) [2]: 183%

CCC(C)=O [2-butanone]
relative activity (%) E. coli HB101 (pNTOM4) [1]: 0%
relative activity (%) E. coli HB101 (pNTOM3) [2]: 22%

O=Cc1ccncc1 [pyridine-4-aldehyde]
relative activity (%) E. coli HB101 (pNTOM4) [1]: 2%
relative activity (%) E. coli HB101 (pNTOM3) [2]: 571%

CCCCCCCCC(=O)C(=O)OCC [ethyl 2-oxodecanoate]
relative activity (%) E. coli HB101 (pNTOM4) [1]: 5%
relative activity (%) E. coli HB101 (pNTOM3) [2]: 985%

CCOC(=O)C(=O)CCc1ccccc1 [ethyl 2-oxo-4-phenylbutyrate]
relative activity (%) E. coli HB101 (pNTOM4) [1]: 106%
relative activity (%) E. coli HB101 (pNTOM3) [2]: 127%

CC(=O)c1ccncc1 [4-acetylpyridine]
relative activity (%) E. coli HB101 (pNTOM4) [1]: 0%
relative activity (%) E. coli HB101 (pNTOM3) [2]: 98%

CC(=O)CC(C)=O [acetylacetone]
relative activity (%) E. coli HB101 (pNTOM4) [1]: 0%
relative activity (%) E. coli HB101 (pNTOM3) [2]: 23%

CC(C)=O [acetone]
relative activity (%) E. coli HB101 (pNTOM4) [1]: 0%
relative activity (%) E. coli HB101 (pNTOM3) [2]: 47%

CCOC(=O)CC(=O)COCc1ccccc1 [ethyl 4-benzyloxyacetoacetate]
relative activity (%) E. coli HB101 (pNTOM4) [1]: 8%
relative activity (%) E. coli HB101 (pNTOM3) [2]: 1259%

CC(=O)CCc1ccccc1 [benzylacetone]
relative activity (%) E. coli HB101 (pNTOM4) [1]: 0%
relative activity (%) E. coli HB101 (pNTOM3) [2]: 66%

CCC(=O)Cc1ccccc1 [1-phenyl-2-butanone]
relative activity (%) E. coli HB101 (pNTOM4) [1]: 2%
relative activity (%) E. coli HB101 (pNTOM3) [2]: 285%

COc1ccc(C(C)=O)cc1OC [3′,4′-dimethoxyacetophenone]
relative activity (%) E. coli HB101 (pNTOM4) [1]: 4%
relative activity (%) E. coli HB101 (pNTOM3) [2]: 51%

CCOC(=O)CC(=O)CCl [ethyl 4-chloroacetoacetate]
relative activity (%) E. coli HB101 (pNTOM4) [1]: 22%
relative activity (%) E. coli HB101 (pNTOM3) [2]: 4547%

O=C1CCCC1 [cyclopentanone]
relative activity (%) E. coli HB101 (pNTOM4) [1]: 0%
relative activity (%) E. coli HB101 (pNTOM3) [2]: 8%

CCOC(=O)C(Cl)C(=O)c1ccccc1 (centres unmarked) [ethyl 2-chloro-3-oxo-3-phenylpropionate]
relative activity (%) E. coli HB101 (pNTOM4) [1]: 5%
relative activity (%) E. coli HB101 (pNTOM3) [2]: 716%

CC(=O)CO [hydroxyacetone]
relative activity (%) E. coli HB101 (pNTOM4) [1]: 0%
relative activity (%) E. coli HB101 (pNTOM3) [2]: 51%

O=CCCCC=O [glutaraldehyde]
relative activity (%) E. coli HB101 (pNTOM4) [1]: 1%
relative activity (%) E. coli HB101 (pNTOM3) [2]: 80%

CCCCCCC(C)=O [2-octanone]
relative activity (%) E. coli HB101 (pNTOM4) [1]: 3%
relative activity (%) E. coli HB101 (pNTOM3) [2]: 808%

CCOC(=O)C(C)=O [ethyl pyruvate]
relative activity (%) E. coli HB101 (pNTOM4) [1]: 23%
relative activity (%) E. coli HB101 (pNTOM3) [2]: 1067%

CC(=O)c1ccc(C)cc1 [4′-methylacetophenone]
relative activity (%) E. coli HB101 (pNTOM4) [1]: 1%
relative activity (%) E. coli HB101 (pNTOM3) [2]: 41%

O=Cc1ccccc1[N+](=O)[O-] [o-nitrobenzaldehyde]
relative activity (%) E. coli HB101 (pNTOM4) [1]: 89%
relative activity (%) E. coli HB101 (pNTOM3) [2]: 1621%

CC(C)(C)OC(=O)N[C@@H](Cc1ccccc1)C(=O)CCl [CBPB, (3S)-1-chloro-3-tert-butoxycarbonylamino-4-phenyl-2-butanone]
relative activity (%) E. coli HB101 (pNTOM4) [1]: 100%
relative activity (%) E. coli HB101 (pNTOM3) [2]: 100%

CC(=O)c1ccc(Cl)cc1 [4′-chloroacetophenone]
relative activity (%) E. coli HB101 (pNTOM4) [1]: 9%
relative activity (%) E. coli HB101 (pNTOM3) [2]: 35%

CCOC(=O)CC(=O)CN=[N+]=[N-] [ethyl 4-azideacetoacetate]
relative activity (%) E. coli HB101 (pNTOM4) [1]: 1%
relative activity (%) E. coli HB101 (pNTOM3) [2]: 659%

O=C(c1ccccc1)C(O)c1ccccc1 (centres unmarked) [benzoin]
relative activity (%) E. coli HB101 (pNTOM4) [1]: 5%
relative activity (%) E. coli HB101 (pNTOM3) [2]: 4018%

CC(=O)c1ccccc1 [acetophenone]
relative activity (%) E. coli HB101 (pNTOM4) [1]: 0%
relative activity (%) E. coli HB101 (pNTOM3) [2]: 215%

C=CC(C(C)=O)C(=O)OCC (centres unmarked) [ethyl 2-eteneacetoacetate]
relative activity (%) E. coli HB101 (pNTOM4) [1]: 10%
relative activity (%) E. coli HB101 (pNTOM3) [2]: 2013%

CCOC(=O)C(=O)c1ccccc1 [ethyl benzoylformate]
relative activity (%) E. coli HB101 (pNTOM4) [1]: 20%
relative activity (%) E. coli HB101 (pNTOM3) [2]: 296%

CC(=O)c1cccnc1 [3-acetylpyridine]
relative activity (%) E. coli HB101 (pNTOM4) [1]: 0%
relative activity (%) E. coli HB101 (pNTOM3) [2]: 15%

CCOC(=O)C(C)C(C)=O (centres unmarked) [ethyl 2-methylacetoacetate]
relative activity (%) E. coli HB101 (pNTOM4) [1]: 4%
relative activity (%) E. coli HB101 (pNTOM3) [2]: 619%

O=Cc1ccccn1 [2-pyridinecarbaldehyde]
relative activity (%) E. coli HB101 (pNTOM4) [1]: 1%
relative activity (%) E. coli HB101 (pNTOM3) [2]: 56%

O=Cc1cccc(Cl)c1 [m-chlorobenzaldehyde]
relative activity (%) E. coli HB101 (pNTOM4) [1]: 17%
relative activity (%) E. coli HB101 (pNTOM3) [2]: 344%

COc1ccc2c(c1)CC(=O)CC2 [7-methoxy-2-tetoralone]
relative activity (%) E. coli HB101 (pNTOM4) [1]: 6%
relative activity (%) E. coli HB101 (pNTOM3) [2]: 599%

CC(=O)CC(=O)OC(C)(C)C [tert-butyl acetoacetate]
relative activity (%) E. coli HB101 (pNTOM4) [1]: 2%
relative activity (%) E. coli HB101 (pNTOM3) [2]: 1330%

O=Cc1ccc(Cl)cc1 [p-chlorobenzaldehyde]
relative activity (%) E. coli HB101 (pNTOM4) [1]: 12%
relative activity (%) E. coli HB101 (pNTOM3) [2]: 91%

O=C1CCCc2ccccc21 [1-tetoralone]
relative activity (%) E. coli HB101 (pNTOM4) [1]: 1%
relative activity (%) E. coli HB101 (pNTOM3) [2]: 146%

CC(=O)c1cccc([N+](=O)[O-])c1 [3′-nitroacetophenone]
relative activity (%) E. coli HB101 (pNTOM4) [1]: 31%
relative activity (%) E. coli HB101 (pNTOM3) [2]: 273%

CCOC(=O)CC(C)=O [ethyl acetoacetate]
relative activity (%) E. coli HB101 (pNTOM4) [1]: 0%
relative activity (%) E. coli HB101 (pNTOM3) [2]: 137%

COC(=O)C(C)=O [methyl pyruvate]
relative activity (%) E. coli HB101 (pNTOM4) [1]: 5%
relative activity (%) E. coli HB101 (pNTOM3) [2]: 674%

CCOC(=O)CC(=O)CBr [ethyl 4-bromoacetoacetate]
relative activity (%) E. coli HB101 (pNTOM4) [1]: 7%
relative activity (%) E. coli HB101 (pNTOM3) [2]: 476%

CCCCCC(C)=O [2-heptanone]
relative activity (%) E. coli HB101 (pNTOM4) [1]: 0%
relative activity (%) E. coli HB101 (pNTOM3) [2]: 102%

CCC=O [propionaldehyde]
relative activity (%) E. coli HB101 (pNTOM4) [1]: 0%
relative activity (%) E. coli HB101 (pNTOM3) [2]: 99%

CC(=O)c1ccccn1 [2-acetylpyridine]
relative activity (%) E. coli HB101 (pNTOM4) [1]: 0%
relative activity (%) E. coli HB101 (pNTOM3) [2]: 29%

CCCCCC=O [n-hexylaldehyde]
relative activity (%) E. coli HB101 (pNTOM4) [1]: 3%
relative activity (%) E. coli HB101 (pNTOM3) [2]: 265%

CC(C=O)c1ccccc1 (centres unmarked) [2-phenylpropionaldehyde]
relative activity (%) E. coli HB101 (pNTOM4) [1]: 3%
relative activity (%) E. coli HB101 (pNTOM3) [2]: 479%

CCOC(=O)C1CCC(=O)C1 (centres unmarked) [ethyl 3-oxocyclopentanecarboxylate]
relative activity (%) E. coli HB101 (pNTOM4) [1]: 12%
relative activity (%) E. coli HB101 (pNTOM3) [2]: 484%

CC(=O)c1cccc(O)c1 [3′-hydroxyacetophenone]
relative activity (%) E. coli HB101 (pNTOM4) [1]: 0%
relative activity (%) E. coli HB101 (pNTOM3) [2]: 33%

O=Cc1ccccc1 [benzaldehyde]
relative activity (%) E. coli HB101 (pNTOM4) [1]: 1%
relative activity (%) E. coli HB101 (pNTOM3) [2]: 81%
